For 84 molecules, EC50 and Ki results are on record in PubChem BioAssay AID2048 (NMMLSC, 2009).

Each structure is given as a SMILES string. Activity calls are given as the source filed them.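 The calls were made as follows: active = EC50 at most 30 µM plus a dose-response curve spanning at least 25% response; inactive = the rest.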

One experiment concerns the target Ras-related C3 botulinum toxin substrate 1 (Homo sapiens) (UniProt P63000). Briefly: activated mutant Rac1 GTP binding inhibitors, SAR follow-up, biochemical, pyrazoline analogs, multiplex bead flow cytometry (AID 2048). Conditions: Bead-based flow cytometry, Bodipy-FL-GTP binding to GST-Rac1. On the technique in general: A flow cytometer gives signals particle by particle.
As for `CN(C)c1ccc(C2CC(c3ccc(Br)cc3)=NN2c2ccccc2)cc1` (stereo not drawn), the EC50 entry is “inactive”.
The same measure, in the same setting: in the case of `COc1ccc(C2CC(c3cccc(F)c3)=NN2c2ccc(S(N)(=O)=O)cc2)cc1` (stereo not drawn) it was “inactive”.
Still for that read-out and setting: the same measure for `NS(=O)(=O)c1ccc(N2N=C(c3ccc(Br)cc3)CC2c2ccc(F)cc2)cc1` (stereo not drawn): “inactive”.
Same read-out and setting: in the case of `COc1ccc(C2CC(c3cccc(Cl)c3)=NN2c2ccc(S(N)(=O)=O)cc2)cc1` (stereo not drawn) it was “inactive”; in that of `Cc1ccc(C2CC(c3ccccc3)=NN2c2ccc(S(N)(=O)=O)cc2)cc1` (stereo not drawn), “inactive”; in that of `COc1ccc(C2CC(c3cccc(OC)c3)=NN2c2ccc(S(N)(=O)=O)cc2)cc1` (stereo not drawn), “inactive”.
Consider `NS(=O)(=O)c1ccc(N2N=C(c3ccccc3)CC2c2ccccc2Cl)cc1` (stereo not drawn), for which the EC50 entry was “inactive”.
For the molecule `COc1ccc(C2CC(C(C)(C)C)=NN2c2ccc(S(N)(=O)=O)cc2)cc1` (stereo not drawn), the EC50 entry is “inactive”.
With `Fc1ccccc1C1CC(c2ccc(Br)cc2)=NN1c1ccc(Br)cc1` (stereo not drawn), the EC50 result is “inactive”.
Still for that read-out and setting: the same measure for `COc1ccc(C2=NN(c3ccc(Cl)c(Cl)c3)C(c3ccc(OC)cc3)C2)cc1` (stereo not drawn): “inactive”; for `NS(=O)(=O)c1ccc(N2N=C(c3ccc(Cl)cc3)CC2c2ccccc2)cc1` (stereo not drawn): “inactive”; for `COc1ccc(C2CC(c3ccc(Br)cc3)=NN2c2ccc(S(N)(=O)=O)cc2)cc1` (stereo not drawn): “inactive”.
As to `NS(=O)(=O)c1ccc(N2N=C(c3ccccc3)CC2c2cccc(Br)c2)cc1` (stereo not drawn), the EC50 result was “inactive”.
For the molecule `Cc1ccccc1N1N=C(c2ccccc2)CC1c1cccc([N+](=O)[O-])c1` (stereo not drawn), the EC50 result is “inactive”.
Consider `COc1ccc(C2=NN(c3cccc(F)c3)C(c3ccc(Cl)cc3)C2)cc1` (stereo not drawn), for which the EC50 entry is “inactive”.
As for `O=[N+]([O-])c1cccc(C2CC(c3ccccc3)=NN2c2ccccc2)c1` (stereo not drawn), the EC50 result is “inactive”.
For `COc1ccc(C2CC(C3CCCCC3)=NN2c2ccc(S(N)(=O)=O)cc2)cc1` (stereo not drawn), the EC50 entry is “inactive”.
Take `COc1ccc(C2CC(c3ccccc3F)=NN2c2ccc(S(N)(=O)=O)cc2)cc1` (stereo not drawn): the EC50 entry is “inactive”.
On the same count and under the same terms, the same measure for `Clc1cccc(N2N=C(c3ccccc3)CC2c2ccccc2)c1` (stereo not drawn): “inactive”; for `CN(C)c1ccc(C2CC(c3ccccc3)=NN2c2ccc([N+](=O)[O-])cc2)cc1` (stereo not drawn): “inactive”; for `COc1ccc(C2CC(c3cccs3)=NN2c2ccc(S(N)(=O)=O)cc2)cc1` (stereo not drawn): “inactive”.
With `COc1ccc(C2CC(c3ccccc3C(F)(F)F)=NN2c2ccc(S(N)(=O)=O)cc2)cc1` (stereo not drawn), the EC50 result was “inactive”.
Regarding `Cc1ccc(-c2cc(C(F)(F)F)nn2-c2ccc(S(N)(=O)=O)cc2)cc1`, the EC50 result is “inactive”.
Same read-out and setting: the same measure for `COc1ccc(C2CC(c3ccccc3)=NN2c2cccc(S(N)(=O)=O)c2)cc1` (stereo not drawn): “inactive”; for `Cc1onc(-c2ccccc2)c1-c1ccc(S(N)(=O)=O)cc1`: “inactive”; for `COc1ccc(C2CC(c3ccc(F)cc3)=NN2c2ccccc2)cc1OC` (stereo not drawn): “inactive”.
Turning to `COc1ccc(C2CC(C)=NN2c2ccc(S(N)(=O)=O)cc2)cc1` (stereo not drawn), the EC50 result is “inactive”.
In the case of `Clc1ccc(N2N=C(c3ccccc3)CC2c2ccccc2)cc1` (stereo not drawn), the EC50 entry is “inactive”.
On to `COc1ccc(C2CC(c3ccc(F)cc3)=NN2c2ccc(S(N)(=O)=O)cc2)cc1` (stereo not drawn), for which the EC50 entry is “inactive”.
As for `NS(=O)(=O)c1ccc(N2N=C(c3ccccc3)CC2c2ccccc2)cc1` (stereo not drawn), the EC50 result was “inactive”.
On the same count and under the same terms, in the case of `COc1ccc(C2CC(c3ccc(Cl)cc3)=NN2c2ccccc2)cc1OC` (stereo not drawn) it was “inactive”; in that of `O=[N+]([O-])c1ccc(N2N=C(c3ccccc3)CC2c2ccccc2)cc1` (stereo not drawn), “inactive”; in that of `O=[N+]([O-])c1ccc(N2N=C(c3ccccc3)CC2c2ccc(O)cc2)cc1` (stereo not drawn), “inactive”.
On the same count and under the same terms, in the case of `COc1ccc(C2CC(c3ccccc3)=NN2c2ccc(S(N)(=O)=O)cc2)cc1OC` (stereo not drawn) it was “inactive”; in that of `CCc1ccc(C2=NN(c3ccc(S(N)(=O)=O)cc3)C(c3ccc(F)cc3)C2)cc1` (stereo not drawn), “inactive”; in that of `Brc1ccc(N2N=C(c3ccccc3)CC2c2ccccc2)cc1` (stereo not drawn), “inactive”.
The same measure, in the same setting: the same measure for `COc1ccc(C2=NN(c3cccc(F)c3)C(c3ccc(OC)cc3)C2)cc1` (stereo not drawn): “inactive”.
`NS(=O)(=O)c1ccc(N2N=C(c3ccccc3)CC2c2ccc(Cl)cc2)cc1` (stereo not drawn): the EC50 entry is “inactive”.
As for `COc1ccc(C2CC(c3ccncc3)=NN2c2ccc(S(N)(=O)=O)cc2)cc1` (stereo not drawn), the EC50 entry was “inactive”.
On to `COc1ccccc1C1CC(c2ccccc2)=NN1c1ccccc1` (stereo not drawn), for which the EC50 result is “inactive”.
Regarding `CN(C)c1ccc(C2CC(c3ccccc3)=NN2c2ccccc2)cc1` (stereo not drawn), the EC50 entry is “inactive”.
Turning to `CC(=O)Oc1ccc(C2=NN(c3ccccc3)C(c3ccccc3)C2)cc1` (stereo not drawn), the EC50 result was “inactive”.
Take `O=S(=O)(O)c1ccc(N2N=C(c3ccccc3)CC2c2ccccc2)cc1` (stereo not drawn): the EC50 entry was “inactive”.
On the same count and under the same terms, the same measure for `Cc1ccccc1N1N=C(c2ccccc2)CC1c1ccc(N(C)C)cc1` (stereo not drawn): “inactive”.
Turning to `COc1ccc(C2CC(c3ccsc3)=NN2c2ccc(S(N)(=O)=O)cc2)cc1` (stereo not drawn), the EC50 entry is “inactive”.
Take `COc1ccc(C2CC(c3ccccc3Cl)=NN2c2ccc(S(N)(=O)=O)cc2)cc1` (stereo not drawn): the EC50 result was “inactive”.
Regarding `COc1cccc(C2CC(c3ccccc3)=NN2c2ccc(S(N)(=O)=O)cc2)c1` (stereo not drawn), the EC50 entry is “inactive”.
For `O=S(=O)(c1ccc(N2N=C(c3ccc(Br)cc3)CC2c2ccccc2)cc1)C(F)F` (stereo not drawn), the EC50 entry was “inactive”.
Consider `COc1ccc(C2CC(c3cccc(C)c3)=NN2c2ccc(S(N)(=O)=O)cc2)cc1` (stereo not drawn), for which the EC50 entry is “inactive”.
For the molecule `Cc1ccccc1C1CC(c2ccccc2)=NN1c1ccc(S(N)(=O)=O)cc1` (stereo not drawn), the EC50 entry was “inactive”.
Turning to `O=S(=O)(c1ccc(N2N=C(c3ccccc3)CC2c2ccccc2)cc1)C(F)F` (stereo not drawn), the EC50 result is “inactive”.
As for `FC(F)(F)c1ccccc1C1CC(c2ccc(Br)cc2)=NN1c1ccccc1` (stereo not drawn), the EC50 entry was “inactive”.
With `COc1ccc(C2CC(c3ccccc3C)=NN2c2ccc(S(N)(=O)=O)cc2)cc1` (stereo not drawn), the EC50 result was “inactive”.
Turning to `COc1ccccc1C1CC(c2ccccc2)=NN1c1ccc(S(N)(=O)=O)cc1` (stereo not drawn), the EC50 entry is “inactive”.
Consider `COc1ccc(C2CC(c3ccccc3OC)=NN2c2ccc(S(N)(=O)=O)cc2)cc1` (stereo not drawn), for which the EC50 entry was “inactive”.
In the case of `FC(F)(F)c1cccc(N2N=C(c3ccc(Cl)cc3)CC2c2ccccc2Cl)c1` (stereo not drawn), the EC50 entry is “inactive”.
On the same count and under the same terms, in the case of `COc1ccccc1N1N=C(c2ccccc2)CC1c1ccccc1` (stereo not drawn) it was “inactive”; in that of `COc1ccc(C2CC(c3ccccc3)=NN2c2ccc(Cl)c(C(=O)O)c2)cc1OC` (stereo not drawn), “inactive”; in that of `COc1ccc(C2=NN(c3ccccc3)C(c3ccc(Cl)cc3)C2)cc1` (stereo not drawn), “inactive”.
For `COc1ccc(C2CC(c3ccc(F)cc3)=NN2c2cc(Cl)ccc2Cl)cc1` (stereo not drawn), the EC50 entry was “inactive”.
Still for that read-out and setting: the same measure for `NS(=O)(=O)c1ccc(N2N=C(c3ccccc3)CC2c2ccccc2Br)cc1` (stereo not drawn): “inactive”; for `Cc1cccc(C2CC(c3ccccc3)=NN2c2ccc(S(N)(=O)=O)cc2)c1` (stereo not drawn): “inactive”; for `COc1ccc(C2CC(c3ccc(N(C)C)cc3)=NN2c2ccc(S(N)(=O)=O)cc2)cc1` (stereo not drawn): “inactive”.
Consider `NS(=O)(=O)c1ccc(N2N=C(c3ccccc3)CC2c2ccc(Br)cc2)cc1` (stereo not drawn), for which the EC50 entry is “inactive”.
`COc1ccc(C2CC(c3ccc(C(F)(F)F)cc3)=NN2c2ccc(S(N)(=O)=O)cc2)cc1` (stereo not drawn): the EC50 entry is “inactive”.
Consider `COc1ccc(C2=NN(c3ccccc3)C(c3ccc(OC)c(OC)c3C(=O)O)C2)cc1` (stereo not drawn), for which the EC50 result was “inactive”.
As to `COc1ccc(C2CC(c3ccccc3)=NN2c2ccc(C(=O)O)cc2)cc1` (stereo not drawn), the EC50 entry is “inactive”.
Turning to `COc1ccc(C2CC(c3ccc(F)cc3)=NN2c2cccc(F)c2)cc1OC` (stereo not drawn), the EC50 result is “inactive”.
As for `Cc1cccc(N2N=C(c3ccccc3)CC2c2ccccc2)c1` (stereo not drawn), the EC50 result was “inactive”.
The same measure, in the same setting: the same measure for `COc1ccc(C2=NN(c3ccccc3)C(c3ccccc3C(F)(F)F)C2)cc1` (stereo not drawn): “inactive”; for `Fc1ccc(C2=NN(c3cccc(Br)c3)C(c3ccccc3)C2)cc1` (stereo not drawn): “inactive”.
The same measure, in the same setting: in the case of `COc1ccc(C2CC(c3ccc(Br)cc3)=NN2c2ccccc2Cl)cc1` (stereo not drawn) it was “inactive”; in that of `COc1ccc(C2=NN(c3ccc(Cl)cc3)C(c3ccccc3F)C2)cc1` (stereo not drawn), “inactive”.
With `COc1ccc(C2CC(c3ccccc3Br)=NN2c2ccc(S(N)(=O)=O)cc2)cc1` (stereo not drawn), the EC50 entry is “inactive”.
Regarding `COc1ccc(C2CC(c3ccccc3)=NN2c2ccc([N+](=O)[O-])cc2)cc1` (stereo not drawn), the EC50 entry was “inactive”.
Take `O=C(O)c1ccc(N2N=C(c3ccccc3)CC2c2ccccc2)cc1` (stereo not drawn): the EC50 result is “inactive”.
For the molecule `COc1ccc(C2CC(c3cccc(Br)c3)=NN2c2ccc(S(N)(=O)=O)cc2)cc1` (stereo not drawn), the EC50 entry is “inactive”.
As for `CN(C)c1ccc(C2CC(c3ccc(Cl)cc3)=NN2c2ccccc2)cc1` (stereo not drawn), the EC50 result is “inactive”.
The same measure, in the same setting: the same measure for `COc1ccc(C2CC(c3cccc(C(F)(F)F)c3)=NN2c2ccc(S(N)(=O)=O)cc2)cc1` (stereo not drawn): “inactive”; for `NS(=O)(=O)c1ccc(N2N=C(c3ccccc3)CC2c2cccc(Cl)c2)cc1` (stereo not drawn): “inactive”.
The same measure, in the same setting: in the case of `COc1ccc(C2CC(c3cccnc3)=NN2c2ccc(S(N)(=O)=O)cc2)cc1` (stereo not drawn) it was “inactive”; in that of `CN(C)c1ccc(C2CC(c3ccc(F)cc3)=NN2c2ccccc2)cc1` (stereo not drawn), “inactive”.
As to `COc1ccc(C2=NN(c3ccccc3F)C(c3ccc(F)cc3)C2)cc1` (stereo not drawn), the EC50 result was “inactive”.
As to `COc1ccc(C2=NN(c3ccc(S(N)(=O)=O)cc3)C(c3ccc(OC)cc3)C2)cc1` (stereo not drawn), the EC50 entry was “inactive”.

Still in this experiment, the particulars now being: Bead-based flow cytometry, Bodipy-FL-GTP binding to GST-Rac1; measured here: Ki calculated from EC50.
One may read the Ki as a measure of affinity in units of concentration, obtained from inhibition or displacement. For `Cc1ccc(-c2cc(C(F)(F)F)nn2-c2ccc(S(N)(=O)=O)cc2)cc1`, the Ki is 3910 nM.
For the molecule `COc1ccc(C2CC(C)=NN2c2ccc(S(N)(=O)=O)cc2)cc1` (stereo not drawn), the Ki was 10 nM.
As for `COc1ccc(C2CC(c3ccc(Cl)cc3)=NN2c2ccccc2)cc1OC` (stereo not drawn), the Ki was 10 nM.
Regarding `O=S(=O)(c1ccc(N2N=C(c3ccc(Br)cc3)CC2c2ccccc2)cc1)C(F)F` (stereo not drawn), the Ki was 790 nM.
Regarding `COc1ccc(C2=NN(c3ccccc3)C(c3ccc(Cl)cc3)C2)cc1` (stereo not drawn), the Ki is 840 nM.
Same read-out and setting: in the case of `COc1ccc(C2CC(c3ccc(F)cc3)=NN2c2cccc(F)c2)cc1OC` (stereo not drawn) it was 3030 nM; in that of `COc1ccc(C2CC(c3ccc(Br)cc3)=NN2c2ccccc2Cl)cc1` (stereo not drawn), 60 nM; in that of `COc1ccc(C2=NN(c3ccc(Cl)cc3)C(c3ccccc3F)C2)cc1` (stereo not drawn), 3260 nM.
The same measure, in the same setting: in the case of `COc1ccc(C2CC(c3ccccc3Br)=NN2c2ccc(S(N)(=O)=O)cc2)cc1` (stereo not drawn) it was 40 nM.
